Measured values as given in PubChem BioAssay AID256 (DTP/NCI, 2004).
Values joined by “and” are separate entries in the source; they are usually repeats but may differ in a detail not shown here. Equal values may be shown once. Inconclusive results and toxic doses are left out. The calls were made as follows: active = survival T/C of 150% or more; inactive = T/C below 125% in these data.

System: CD2F1 mice, L1210 leukemia ip, survival T/C
Assay: NCI In Vivo Anticancer Drug Screen. Data for tumor model L1210 Leukemia (intraperitoneal) in CD2F1 (CDF1) mice
Conditions: higher = longer survival
Outline: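 Read-out first: treated-group measurement over vehicle-control measurement, expressed as a ratio. Animals bore a transplanted tumor line and were dosed with compound or vehicle.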

[1] = endpoint: mean survival time, dose: 100.0 mg/kg/injection, schedule: Q01DX009 (ip), vehicle: saline with Tween-80
[2] = endpoint: mean survival time, dose: 200.0 mg/kg/injection, schedule: Q01DX009 (ip), vehicle: saline with Tween-80
[3] = endpoint: mean survival time, dose: 400.0 mg/kg/injection, schedule: Q01DX009 (ip), vehicle: saline with Tween-80

Measured: T/C

CC(C(=O)c1ccccc1)C(c1ccccc1)N1CCCCC1 (configuration not stated)
inactive: endpoint: mean survival time, dose: 100.0 mg/kg/injection, schedule: Q01DX001 (ip), vehicle: saline with Tween-80 92 % of control | [1] 87 % of control | [2] 96 % of control | endpoint: mean survival time, dose: 400.0 mg/kg/injection, schedule: Q01DX001 (ip), vehicle: saline with Tween-80 90 % of control | [3] 93 % of control

CN(C)C(=S)SCc1ccc(Cl)cc1
inactive: endpoint: mean survival time, dose: 100.0 mg/kg/injection, schedule: Q04DX003 (ip), vehicle: other 93 % of control | endpoint: mean survival time, dose: 200.0 mg/kg/injection, schedule: Q04DX003 (ip), vehicle: other 102 % of control | endpoint: mean survival time, dose: 400.0 mg/kg/injection, schedule: Q04DX003 (ip), vehicle: other 100 % of control

O=[N+]([O-])C(Br)C(Br)c1ccccc1 (configuration not stated)
inactive: endpoint: mean survival time, dose: 6.25 mg/kg/injection, schedule: Q01DX001 (ip), vehicle: Klucel (hydroxypropylcellulose) (HPC) 96 % of control | endpoint: mean survival time, dose: 12.5 mg/kg/injection, schedule: Q01DX001 (ip), vehicle: Klucel (hydroxypropylcellulose) (HPC) 97 % of control | endpoint: mean survival time, dose: 25.0 mg/kg/injection, schedule: Q01DX001 (ip), vehicle: Klucel (hydroxypropylcellulose) (HPC) 91 % of control | endpoint: mean survival time, dose: 50.0 mg/kg/injection, schedule: Q01DX001 (ip), vehicle: Klucel (hydroxypropylcellulose) (HPC) 102 % of control

CC[C@@]1(OP(=O)(O)O)C(=O)OCc2c1cc1n(c2=O)Cc2cc3ccccc3nc2-1
active: endpoint: median survival time, dose: 8.25 mg/kg/injection, schedule: Q04HX004 (iv), vehicle: water 154 % of control | endpoint: median survival time, dose: 16.5 mg/kg/injection, schedule: Q04HX004 (iv), vehicle: water 158 % of control and 180 % of control | endpoint: median survival time, dose: 33.0 mg/kg/injection, schedule: Q04HX004 (iv), vehicle: water 177 % of control and 221 % of control | endpoint: median survival time, dose: 44.0 mg/kg/injection, schedule: Q04DX002 (ip), vehicle: water 158 % of control and 192 % of control | endpoint: median survival time, dose: 44.0 mg/kg/injection, schedule: Q04HX004 (iv), vehicle: water 207 % of control
inactive: endpoint: median survival time, dose: 5.5 mg/kg/injection, schedule: Q04DX002 (ip), vehicle: water 111 % of control and 112 % of control | endpoint: median survival time, dose: 11.0 mg/kg/injection, schedule: Q04DX002 (ip), vehicle: water 119 % of control and 104 % of control

COc1cccc(/C=N/C(=S)NC2(C)C3CCC(C3)C2(C)C)c1O (configuration not stated)
inactive: endpoint: mean survival time, dose: 12.5 mg/kg/injection, schedule: Q01DX009 (ip), vehicle: olive oil, sesame oil, peanut oil 98 % of control | endpoint: mean survival time, dose: 25.0 mg/kg/injection, schedule: Q01DX009 (ip), vehicle: olive oil, sesame oil, peanut oil 96 % of control | endpoint: mean survival time, dose: 50.0 mg/kg/injection, schedule: Q01DX009 (ip), vehicle: olive oil, sesame oil, peanut oil 90 % of control | endpoint: mean survival time, dose: 100.0 mg/kg/injection, schedule: Q01DX009 (ip), vehicle: olive oil, sesame oil, peanut oil 97 % of control | endpoint: mean survival time, dose: 200.0 mg/kg/injection, schedule: Q01DX009 (ip), vehicle: olive oil, sesame oil, peanut oil 96 % of control | endpoint: mean survival time, dose: 400.0 mg/kg/injection, schedule: Q01DX009 (ip), vehicle: olive oil, sesame oil, peanut oil 90 % of control

N#Cc1c(N)[nH]c2ccc(Sc3ccccc3)cc12
inactive: endpoint: median survival time, dose: 6.25 mg/kg/injection, schedule: Q01DX005 (ip), vehicle: saline with Tween-80 108 % of control | endpoint: median survival time, dose: 12.5 mg/kg/injection, schedule: Q01DX005 (ip), vehicle: saline with Tween-80 101 % of control and 109 % of control | endpoint: median survival time, dose: 25.0 mg/kg/injection, schedule: Q01DX005 (ip), vehicle: saline with Tween-80 102 % of control and 112 % of control | endpoint: median survival time, dose: 43.0 mg/kg/injection, schedule: Q01DX005 (ip), vehicle: saline with Tween-80 112 % of control | endpoint: median survival time, dose: 43.2 mg/kg/injection, schedule: Q01DX005 (ip), vehicle: saline with Tween-80 117 % of control | endpoint: median survival time, dose: 50.0 mg/kg/injection, schedule: Q01DX005 (ip), vehicle: saline with Tween-80 123 % of control and 110 % of control | endpoint: median survival time, dose: 100.0 mg/kg/injection, schedule: Q01DX005 (ip), vehicle: saline with Tween-80 101 % of control
active: endpoint: median survival time, dose: 120.0 mg/kg/injection, schedule: Q01DX005 (ip), vehicle: saline with Tween-80 153 % of control and 164 % of control

O=C1/C(=C/c2cccc([N+](=O)[O-])c2)CCc2ccccc21
inactive: endpoint: mean survival time, dose: 100.0 mg/kg/injection, schedule: Q01DX009 (ip), vehicle: saline 94 % of control | endpoint: mean survival time, dose: 200.0 mg/kg/injection, schedule: Q01DX009 (ip), vehicle: saline 97 % of control | endpoint: mean survival time, dose: 400.0 mg/kg/injection, schedule: Q01DX009 (ip), vehicle: saline 91 % of control

CCO[Si](C)(CCCOCC1CO1)OCC (configuration not stated)
inactive: endpoint: mean survival time, dose: 50.0 mg/kg/injection, schedule: Q01DX009 (ip), vehicle: Klucel (hydroxypropylcellulose) (HPC) 102 % of control | endpoint: mean survival time, dose: 100.0 mg/kg/injection, schedule: Q01DX009 (ip), vehicle: Klucel (hydroxypropylcellulose) (HPC) 100 % of control | endpoint: mean survival time, dose: 200.0 mg/kg/injection, schedule: Q01DX009 (ip), vehicle: Klucel (hydroxypropylcellulose) (HPC) 94 % of control

COC(=O)C(NC(=O)C(C)NC(=O)OCc1ccccc1)C(C)C (configuration not stated)
inactive: [1] 97 % of control | [2] 93 % of control | [3] 98 % of control
